Values of other authors as cited in patent publication US20020122815A1, “Compositions and methods of carbohydrate dosing” (priority 2001, published 2002).

Key:
serum glucose levels [1] = details: compared with glucose or sucrose
[2] = in large amounts
serum glucose levels [3] = details: serum glucose response to 50 g carbohydrate as percentage of standard meal (usually 50 g glucose)

Row | SMILES | rise in serum glucose (serum glucose levels [1]) | adverse effect [2] | Glycemic Index (serum glucose levels [3])
1 | OC[C@@H](O)[C@@H](O)[C@H](O)[C@H](O)CO [Mannitol] | less of a rise in serum glucose than glucose or sucrose | may cause diarrhea | 
2 | O=C(CO)[C@@H](O)[C@H](O)[C@H](O)CO [fructose] |  |  | 23
3 | OC[C@@H](O)[C@@H](O)[C@H](O)[C@@H](O)CO [sorbitol] | less of a rise in serum glucose than glucose or sucrose | may cause diarrhea | 
4 | OC[C@H]1O[C@@](CO)(O[C@H]2O[C@H](CO)[C@@H](O)[C@H](O)[C@H]2O)[C@@H](O)[C@@H]1O [sucrose] |  |  | 60-65
